Structures can show the parent of a compound that is named as a salt.

Series [1] is described as follows: Cytotoxicity against african green monkey Vero cells. The format is cell-based. Particulars: chlorocebus sabaeus.
Series [2] relates to Poliovirus 2. The series can be described thus: Antiviral activity against Poliovirus 2 Sabin 2 infected in african green monkey Vero cells at 0.001 multiplicity of infection assessed as inhibition of virus-induced cytopathogenicity. The format is functional. The note with it: Enterovirus C, Sabin 2, Vero; read-out: ED50 (the source's name). Background: Damage to the host cells serves as the signal in cytopathic effect assays.

Series [3] can be described thus: Selectivity index, ratio of CC50 for african green monkey Vero cells to ED50 for Poliovirus 2 Sabin 2. Format: toxicity, cell-based.
For series [4], the system named is Poliovirus 2. In words: Antiviral activity against Poliovirus 2 Sabin 2 in african green monkey Vero cells assessed as log reduction in virus titers after at 0.1 multiple round of replication at their respective maximum tolerated concentration after 32 hrs. The format is functional.
The nature of series [5]: Cytotoxicity against african green monkey Vero cells assessed as drug concentration at which no cellular alteration was microscopically detected. The format is cell-based. Particulars: chlorocebus sabaeus, read-out: MTC.
The test system of series [6] is Poliovirus 2. The series can be described thus: Antiviral activity against Poliovirus 2 Sabin 2 in african green monkey Vero cells assessed as log reduction in virus titers after at 0.1 multiple round of replication at their respective half of maximum tolerated concentration after 32 hrs. The format is functional.
In series [7] the test system is Poliovirus 2. The series can be described thus: Antiviral activity against Poliovirus 2 Sabin 2 in african green monkey Vero cells assessed as log reduction in virus titers after at 0.01 multiple round of replication at their respective maximum tolerated concentration after 32 hrs. The format is functional.
For series [8], the system named is Poliovirus 2. In words: Antiviral activity against Poliovirus 2 Sabin 2 in african green monkey Vero cells assessed as log reduction in virus titers after at 0.01 multiple round of replication at their respective half the maximum tolerated concentration after 32 hrs. The format is functional.
Series [9] deals with Poliovirus 2. The series can be described thus: Antiviral activity against Poliovirus 2 Sabin 2 in african green monkey Vero cells assessed as log reduction in virus titers after at 0.001 multiple round of replication at their respective maximum tolerated concentration after 32 hrs. The format is functional.
For series [10], the system named is Poliovirus 2. The series can be described thus: Antiviral activity against Poliovirus 2 Sabin 2 in african green monkey Vero cells assessed as log reduction in virus titers after at 0.001 multiple round of replication at their respective half the maximum tolerated concentration after 32 hrs. Format: functional.

As a reminder, the CC50 is the concentration at which the toxic effect on the cells reaches its halfway point. In [1], `COc1cc2c(cc1OC)-c1c(OC)c(OC)cc3c1[C@H](C2)N(C)CC3.O=C(O)/C=C/C(=O)O` [GLAUCINE FUMARATE] gave a CC50 of 142 µM. Further, the EC50 in the series on Poliovirus 2 [2] is 9 µM. For the same compound, the selectivity ratio in series [3] stood at 15.8. Also, the Activity with Poliovirus 2 [4] is recorded as 1; in the series with Poliovirus 2 [6], 0.5; in the series on Poliovirus 2 [7] it was 1.5; with Poliovirus 2 [8], 1; with Poliovirus 2 [9] it was 3; in the series with Poliovirus 2 [10], 1.5. In addition, in series [5], the MNTC came to 62 µM.

`COc1cc2c(cc1O)C[C@H]1c3c(cc(OC)c(OC)c3-2)CCN1C`: in series [1], it took 250 µM to reach half-maximal cytotoxicity (CC50). Besides, the EC50 with Poliovirus 2 [2] is 15 µM. The selectivity ratio in series [3] was determined as 16.7. In addition, the Activity in the series on Poliovirus 2 [4] came to 1; in the series on Poliovirus 2 [6], 0.5; with Poliovirus 2 [7] it was 1.5; with Poliovirus 2 [8] it was 1; with Poliovirus 2 [9], 2.5; in the series with Poliovirus 2 [10], 1. For the same compound, the MNTC in series [5] came to 125 µM.

In [1], `COc1cc2c(cc1O)C[C@H]1c3c(cc(O)c(OC)c3-2)CCN1C` [BOLDINE] came in with a CC50 of 250 µM. Further, in the series on Poliovirus 2 [2], the EC50 amounted to 125 µM. Further, the selectivity ratio in series [3] is 2. Besides, in series [5], the MNTC was 125 µM.

In turn, `COc1cc2c(cc1O)C[C@@H]1NCCc3cc4c(c-2c31)OCO4` [ACTINODAPHNINE] had a CC50 in series [1] of 107 µM. For the same compound, the MNTC in series [5] is 95 µM.

With `COc1cc2c(cc1OC)-c1c(OC)c(OC)cc3c1[C@H](C2)N(C(C)=O)CC3`, in series [1], the CC50 turned out to be 342 µM. Besides, the EC50 in the series on Poliovirus 2 [2] stood at 50 µM. In addition, the selectivity ratio in [3] was found to be 6.8. For the same compound, the Activity in the series with Poliovirus 2 [4] is recorded as 1.5; in the series with Poliovirus 2 [6] it was 0.5; with Poliovirus 2 [7], 1.5; in the series with Poliovirus 2 [8], 0.5; in the series on Poliovirus 2 [9], 1.5; with Poliovirus 2 [10] it was 1. For the same compound, in [5], the MNTC was 250 µM.

Compound `COc1cc2c(cc1O)C[C@H]1c3c(cc(OC)c(O)c3-2)CCN1C.Cl` [ISOBOLDINE HYDROCHLORIDE] showed a cytotoxic concentration (CC50) in [1] of 217 µM. Moreover, the EC50 with Poliovirus 2 [2] was 15 µM. The selectivity ratio in series [3] was 14.5. Besides, the Activity in the series on Poliovirus 2 [4] was found to be 1.5; in the series with Poliovirus 2 [6], 1; in the series with Poliovirus 2 [7], 1.5; with Poliovirus 2 [8], 1; in the series with Poliovirus 2 [9], 2.5; in the series on Poliovirus 2 [10], 1.5. In addition, in series [5], the MNTC was found to be 125 µM.

In turn, `CO[C@H]1c2ccccc2-c2c3c(cc4c2[C@@H]1N(C)C[C@@H]4O)OCO3` [PACHYSTAUDINE] yielded a CC50 in series [1] of 68 µM. Moreover, in the series with Poliovirus 2 [2], the EC50 was 31 µM. For the same compound, in series [3], the selectivity ratio amounted to 2.2. Also, the Activity was 0 with Poliovirus 2 [4], 0.5 in the series with Poliovirus 2 [7] and 0.5 in the series on Poliovirus 2 [9]. Besides, the MNTC in series [5] stood at 62 µM.

`COc1ccc2c(c1)[C@H](O)[C@@H]1c3c(cc4c(c3-2)OCO4)CCN1C` [OLIVERIDINE] returned a 50% cytotoxic concentration (CC50) in series [1] of 7 µM. Moreover, the MNTC in series [5] is 5 µM.

In [1], `COc1cc2ccnc3c2c(c1OC)-c1ccccc1C3=O` [LYSICAMINE] showed a CC50 of 500 µM. Besides, the MNTC in series [5] turned out to be 250 µM.

Consider `O=C1c2ccccc2-c2c3c(cc4ccnc1c24)OCO3` [LIRIODENINE], for which it took 48 µM to reach half-maximal cytotoxicity in [1] (CC50). Moreover, the MNTC in [5] stood at 31 µM.

Consider `COc1cccc2c1C(=O)c1nccc3cc4c(c-2c13)OCO4` [OXOSTEPHANINE], for which the cytotoxic concentration (CC50) in [1] stood at 28 µM. For the same compound, the MNTC in [5] stood at 15 µM.

In the case of `COc1cc2c(cc1O)C[C@H]1c3c(cc4c(c3-2)OCO4)CCN1C` [CASSYTHICINE], in series [1], the CC50 was 47 µM. In addition, the MNTC in series [5] turned out to be 31 µM.

In series [1], `CO[C@H]1c2ccccc2-c2c3c(cc4c2[C@@H]1NCC4)OCO3` [PACHYPODANTINE] registered a 50% cytotoxic concentration (CC50) of 25 µM. Besides, the MNTC in series [5] came out at 20 µM.

In turn, `COc1ccc2c(c1)[C@H](OC)[C@@H]1c3c(cc4c(c3-2)OCO4)CCN1C` [OLIVERINE HCL] displayed a CC50 in series [1] of 9 µM. Also, the MNTC in series [5] was 7 µM.

Consider `COc1cc2c(cc1O)C[C@@H]1NCCc3cc(OC)c(OC)c-2c31` [LAUROTETANINE], for which, in [1], half-maximal cytotoxicity (CC50) was put at 165 µM. The EC50 with Poliovirus 2 [2] amounted to 31 µM. The selectivity ratio in series [3] amounted to 5.3. In addition, the Activity in the series with Poliovirus 2 [4] is recorded as 1; in the series with Poliovirus 2 [6], 0.5; with Poliovirus 2 [7] it was 1.5; in the series with Poliovirus 2 [8], 1; in the series on Poliovirus 2 [9] it was 1.5; in the series with Poliovirus 2 [10], 1. The MNTC in series [5] was determined as 62 µM.

As for `COc1c2c3c(c4c1OCO4)-c1ccccc1[C@H](O)[C@H]3N(C)CC2` [GUATTERINE], in series [1], the midpoint of cytotoxicity, the CC50, lay at 107 µM. The EC50 with Poliovirus 2 [2] was 62 µM. The selectivity ratio in series [3] was 1.7. Also, the MNTC in [5] turned out to be 62 µM.

In series [1], `COc1cc2c3c(c1OC)-c1ccccc1C[C@H]3N(C)CC2.Cl` [NUCIFERINE HYDROCHLORIDE] displayed a CC50 of 435 µM. Also, in the series on Poliovirus 2 [2], the EC50 came out at 26 µM. Also, the selectivity ratio in [3] was 16.7. The Activity in the series on Poliovirus 2 [4] is 1; in the series on Poliovirus 2 [6] it was 0.5; in the series with Poliovirus 2 [7], 1; in the series with Poliovirus 2 [8], 0.5; in the series with Poliovirus 2 [9] it was 2; in the series with Poliovirus 2 [10] it was 0.5. In addition, the MNTC in series [5] was 125 µM.

As to `COc1cc2c(cc1O)C[C@@H]1NCCc3cc(O)c(OC)c-2c31` [NORBOLDINE], the 50% cytotoxic concentration (CC50) in series [1] stood at 95 µM. The EC50 with Poliovirus 2 [2] was 62 µM. Also, the selectivity ratio in series [3] was found to be 1.5. In series [5], the MNTC stood at 62 µM.

These data come from ChEMBL document CHEMBL1158665, “Antipoliovirus structure-activity relationships of some aporphine alkaloids” (J Nat Prod, 1998).
